# Read-outs that look alike come from different tables or passages of the source.
# Key:
# OVCAR-3 = assay: Inhibition of proliferation of ovarian cancer cell line OVCAR-3 (CellTiter Glo); type: cell-based; details: read-out: OVCAR-3 IC50
# HCC1806 = assay: Inhibition of proliferation of breast cancer cell line HCC1806 (CellTiter Glo); type: cell-based; details: read-out: HCC1806 IC50
# KIF18A = KIF18A (Homo sapiens (Human), UniProt Q8NI77); assay: Inhibition of KIF18A enzyme activity (ADP-Glo); type: biochemical; details: 60 min at 25° C.
# Chain of KIF18A (Q8NI77 whole entry): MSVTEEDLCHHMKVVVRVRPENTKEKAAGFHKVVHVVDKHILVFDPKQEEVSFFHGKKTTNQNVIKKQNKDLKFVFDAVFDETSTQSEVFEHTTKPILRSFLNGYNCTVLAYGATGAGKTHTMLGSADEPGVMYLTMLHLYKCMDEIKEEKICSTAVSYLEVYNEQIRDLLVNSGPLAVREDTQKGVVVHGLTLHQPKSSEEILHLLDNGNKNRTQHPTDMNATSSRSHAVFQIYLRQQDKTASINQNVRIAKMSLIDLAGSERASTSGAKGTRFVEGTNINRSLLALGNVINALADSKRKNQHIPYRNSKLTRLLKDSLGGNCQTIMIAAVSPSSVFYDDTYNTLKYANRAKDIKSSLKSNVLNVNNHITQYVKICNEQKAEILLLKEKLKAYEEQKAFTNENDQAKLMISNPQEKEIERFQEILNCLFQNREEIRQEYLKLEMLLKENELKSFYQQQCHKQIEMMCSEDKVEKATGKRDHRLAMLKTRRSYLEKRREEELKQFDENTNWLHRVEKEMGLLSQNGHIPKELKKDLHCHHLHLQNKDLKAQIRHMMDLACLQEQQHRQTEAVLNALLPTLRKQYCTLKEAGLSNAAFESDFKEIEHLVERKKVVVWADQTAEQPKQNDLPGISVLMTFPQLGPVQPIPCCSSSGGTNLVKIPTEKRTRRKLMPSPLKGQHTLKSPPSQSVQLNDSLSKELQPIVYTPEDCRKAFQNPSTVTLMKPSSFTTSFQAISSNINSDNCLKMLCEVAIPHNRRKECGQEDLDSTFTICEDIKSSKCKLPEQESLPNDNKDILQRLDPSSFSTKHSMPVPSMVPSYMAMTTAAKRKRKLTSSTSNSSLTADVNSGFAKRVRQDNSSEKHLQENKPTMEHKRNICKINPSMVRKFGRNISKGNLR
# Description: The ADP-Glo method was used to test the enzymatic activity of KIF18A. The compound was diluted 3-fold with DMSO at a starting concentration of 3000 nM, for a total of ten concentrations, and tested in duplicate. Echo was used to transfer 25 nL of the diluted compound to a 384-well plate, and 2.5 μL of enzyme working solution was added. Plate was centrifuged at 1000 rpm for 1 min, and incubated at 25° C. for 10 min. 2.5 μL of ATP and substrate solution was added to start the reaction, and plate was incubated at 25° C. for 60 min. 4 μL of ADP-Glo solution was added to the 384-well plate, and plate was incubated at 25° C. for 40 min. 8 μL of detection solution was added and incubated at 25° C. for 40 min, and BMG was used to read the […] value. Inhibition rate was calculate according to the following formula: Inhibition rate (%)=(DMSO well−compound well)/(DMSO well−blank control well)×100%. The IC50 value of each compound was analyzed using the nonlinear regression method of XLFit 5.5.0 software. The formula is: Y=Bottom+(Top−Bottom)/(1+10^((Log IC50−X)*HillSlope)).
# HCC1954 = assay: Inhibition of proliferation of breast cancer cell line HCC1954 (CellTiter Glo); type: cell-based; details: HCC1954 cells, 96 hours
# [1] = rat, in vivo, po, 3 mg/kg
# Description: (§1) Instruments: XEVO TQ-S LC/MS instrument was produced by Waters. All measurement data were collected and processed by Masslynx V4.1 software, and the data were calculated and processed by Microsoft Excel. The statistical moment method of WinNonLin 8.0 software was used to calculate the pharmacokinetic parameters. These mainly include kinetic parameters Tmax, T1/2, Cmax, AUC0-24h etc. Column: ACQUITY UPLC BEH C18 (2.1 mm×50 mm, 1.7 m); column temperature 40° C.; mobile phase A is water (0.1% formic acid), mobile phase B is acetonitrile, flow rate is 0.350 mL/min, gradient elution is adopted, the elution gradient is 0.50 min: 10% B; 1.50 min: 90% B; 2.50 min: 90% B; 2.51 min: 10% B; 3.50 min: stop. Injection volume: 1 μL.
# (§2) Animals: 3 male SD rats with a weight range of 200-220 g were purchased and kept in the laboratory of the Experimental Animal Center for 2 days and then used. They were fasted for 12 hours predose and 4 hours after dosing. Drinking water was free during the test. After the rats were gavage, blood samples were taken according to the established time point.
# (§3) Solvent: 0.4% ethanol+0.4% Tween80+99.2% (0.5% methylcellulose M450). Preparation of the solution for intragastrical administration: the compounds were accurately weighed and added to the solvent, and ultrasound was used at room temperature for 5 minutes to completely dissolve the drug, and a 0.3 mg/mL medicinal solution was prepared.
# (§4) Pharmaceutical samples: Generally, multiple samples with similar structures (with a molecular weight difference of more than 2 units) are taken, accurately weighed, and administered together (cassette PK). In this way, multiple compounds can be screened at the same time and their oral absorption rates can be compared. A single administration was also used to study the pharmacokinetics of the drug sample in rats.
# (§5) After intragastrical administration, blood was taken from the orbit at 0.25, 0.5, 1, 2, 4, 8, 10 and 24 hours. Then 50 μL of the plasma sample was taken and added 200 μL of acetonitrile (including internal standard control verapamil 2 ng/mL), vortexed for 3 min and centrifuged at 20000 rcf, 4° C. for 10 min. The supernatant plasma was used for LC-MS/MS analysis.
# (§6) The compounds were accurately weighed to prepare different concentrations, and quantitative analysis on mass spectrometry was performed to establish a standard curve, and then the concentration of the above-mentioned compound in the plasma was tested to obtain its concentration at different time points. All measurement data were collected and processed by relevant software, and the statistical moment method was used to calculate the pharmacokinetic parameters (mainly including kinetic parameters Tmax, T1/2, Cmax, AUC0-24h etc).
# [2] = Pharmacokinetic study in rats
# Description: as §1, §2, §3, §4, §5, §6
# [3] = Homo sapiens, OVCAR-3 cells, 96 hours, CellTiter Glo
# [4] = Homo sapiens, HCC1806 cells, 96 hours, CellTiter Glo
# [5] = male, SD, rat, plasma, po, 3 mg/kg
smiles,measurement,setting,value
Cc1cc(NC(=O)c2ccc(NS(=O)(=O)C(C)CO)cc2N2CCC3(CC2)CC3)nc(N2CCC(=C(F)F)CC2)n1 (stereo not shown) [Compound 3C],IC50,OVCAR-3; [3],< 0.2 µM
same,IC50,HCC1806; [4],< 0.5 µM
Cc1cc(NC(=O)c2ccc(NS(=O)(=O)C3(CO)CC3)cc2N2CCC3(CC2)CC3)nc(N2CCC(=C(F)F)CC2)n1 [Compound 13],IC50,OVCAR-3; [3],< 0.5 µM
same,IC50,HCC1806; [4],< 0.5 µM
Cc1cc(NC(=O)c2ccc(NS(=O)(=O)C3(CN4CC(O)C4)CC3)cc2N2CCC3(CC2)CC3)nc(N2CCC(F)(F)CC2)n1 [Compound 20],IC50,OVCAR-3; [3],< 1 µM
same,IC50,HCC1806; [4],< 1 µM
O=C(Nc1cccc(N2CC(F)(F)C2)n1)c1ccc(NS(=O)(=O)C2(CN3CCC3)CC2)cc1N1CCC2(CC1)CC2 [Compound 29],IC50,"OVCAR-3; Homo sapiens, OVCAR-3, 96 h",< 0.5 µM
same,IC50,"HCC1806; Homo sapiens, HCC1806, 96 h",< 1 µM
C[C@@H]1CN(c2cccc(NC(=O)c3ccc(NS(=O)(=O)C4(CN5CCC5)CC4)cc3N3CCC4(CC3)CC4)n2)CCO1 [Compound 30],IC50,OVCAR-3; [3],< 0.5 µM
same,IC50,HCC1806; [4],< 1 µM
C[C@@H]1CN(c2cccc(NC(=O)c3ccc(NS(=O)(=O)C4(CN5CC(O)C5)CC4)cc3N3CCC4(CC3)CC4)n2)CCO1 [Compound 32],IC50,OVCAR-3; [3],< 1.5 µM
same,IC50,HCC1806; [4],< 1 µM
Cc1cc(NC(=O)c2ccc(NS(=O)(=O)CCO)cc2N2CCC(=C(F)F)CC2)nc(N2CCC(F)(F)CC2)n1 [Compound 33],IC50,KIF18A,< 0.05 µM
same,IC50,HCC1954,< 0.075 µM
same,IC50,OVCAR-3,< 0.075 µM
same,IC50,HCC1806,< 0.2 µM
same,AUC0-24 h,[1],10273.88 ng·h/mL
same,Cmax,[1],717.6 ng/mL
same,T1/2,[1],7.05 h
same,Tmax,[1],8.00 h
CC(C)=C1CCN(c2cc(NS(=O)(=O)CCO)ccc2C(=O)Nc2cc(C)nc(N3CCC(F)(F)CC3)n2)CC1 [Compound 35],IC50,OVCAR-3; [3],< 0.5 µM
C=C(C)C1CCN(c2cc(NS(=O)(=O)C3(C)CC3)ccc2C(=O)Nc2cccc(S(=O)(=O)NC(C)(C)C)c2)CC1 [Compound 36],IC50,OVCAR-3; [3],< 0.2 µM
CC(C)(C)NS(=O)(=O)c1cccc(NC(=O)c2ccc(NS(=O)(=O)C3(C)CC3)cc2N2CCC(=C(F)F)CC2)c1 [Compound 39],IC50,OVCAR-3; [3],< 0.05 µM
O=C(Nc1cccc(N2CCC(F)(F)CC2)n1)c1ccc(NS(=O)(=O)CCO)cc1N1CCC(=C(F)F)CC1 [Compound 40],IC50,OVCAR-3; [3],< 0.05 µM
CC(C)(C)NS(=O)(=O)c1cccc(NC(=O)c2ccc(NS(=O)(=O)CCO)cc2N2CCC(=C(F)F)CC2)c1 [Compound 41],IC50,OVCAR-3; [3],< 0.05 µM
CC(C)=C1CCN(c2nc(NCCO)ccc2C(=O)Nc2cccc(S(=O)(=O)C3CCCC3)c2)CC1 [Compound 44],IC50,OVCAR-3; [3],< 2 µM
CP(=O)(c1cccc(NC(=O)c2ccc(NCCO)nc2N2CCC3(CC2)CC3)c1)C1CCCC1 (stereo not shown) [Compound 46],IC50,OVCAR-3; [3],< 1.5 µM
Cc1cc(NC(=O)c2ccc(NS(=O)(=O)C3CC(O)C3)cc2N2CCC3(CC2)CC3)nc(N2CCC(F)(F)CC2)n1 (stereo not shown) [Compound 47],IC50,HCC1954; Homo sapiens,< 0.075 µM
same,IC50,OVCAR-3; [3],< 0.05 µM
Cc1cc(NC(=O)c2ccc(NS(=O)(=O)CCO)cc2N2CCC(=C(F)F)CC2)nc(N2CCC(F)(F)CC2)c1 [Compound 48],IC50,KIF18A,< 0.05 µM
same,IC50,HCC1954,< 0.05 µM
same,IC50,OVCAR-3,< 0.05 µM
same,IC50,HCC1806,< 0.05 µM
same,AUC0-24 h,[1],1724.65 ng·h/mL
same,Cmax,[1],153.57 ng/mL
same,T1/2,[1],4.91 h
same,Tmax,[1],4.00 h
Cc1cc(NC(=O)c2ccc(NS(=O)(=O)C3(CO)CC3)cc2N2CCC(=C(F)F)CC2)nc(N2CCC(F)(F)CC2)n1 [Compound 51],IC50,HCC1954; Homo sapiens,< 0.1 µM
same,AUC(0-t),[2]; [5],424 ng·h/mL
same,Cmax,[2]; [5],43.3 ng/mL
same,Tmax,[2]; [5],4.67 h
same,half-life,[2]; [5],6.68 h
same,IC50,OVCAR-3; [3],< 0.05 µM
same,IC50,HCC1806; [4],< 0.2 µM
Cc1cc(NC(=O)c2ccc(NS(=O)(=O)C(C)CO)cc2N2CCC(=C(F)F)CC2)nc(N2CCC(F)(F)CC2)n1 (stereo not shown) [Compound 52],IC50,OVCAR-3; [3],< 0.05 µM
same,IC50,HCC1806; [4],< 0.1 µM
C[C@@H]1CN(c2cccc(NC(=O)c3ccc(NS(=O)(=O)CCO)cc3N3CCC(=C(F)F)CC3)n2)CCO1 [Compound 53],IC50,HCC1954; Homo sapiens,< 0.05 µM
same,IC50,OVCAR-3; [3],< 0.05 µM
Cc1cc(NC(=O)c2ccc(NS(=O)(=O)CCO)cc2N2CCC(=C(F)F)CC2)cc(N2CCC(F)(F)CC2)c1 [Compound 56],IC50,KIF18A,< 0.05 µM
same,IC50,HCC1954,< 0.075 µM
same,AUC0-24 h,"[2]; male SD rats, oral 3 mg/kg",2051.53 ng·h/mL
same,Cmax,"[2]; male SD rats, oral 3 mg/kg",175.28 ng/mL
same,T1/2,"[2]; male SD rats, oral 3 mg/kg",3.83 h
same,Tmax,"[2]; male SD rats, oral 3 mg/kg",4.00 h
same,IC50,OVCAR-3,< 0.05 µM
same,IC50,HCC1806,< 0.1 µM
CC(C)(CO)Nc1ccc(C(=O)Nc2cccc(S(=O)(=O)C3CCCC3)c2)c(N2CCC(=C(F)F)CC2)n1 [Compound 59],IC50,HCC1954; Homo sapiens,< 0.075 µM
same,IC50,OVCAR-3; [3],< 0.075 µM
same,IC50,HCC1806; [4],< 0.2 µM
Cc1cc(NC(=O)c2ccc(NS(=O)(=O)C(C)(C)CO)cc2N2CCC(=C(F)F)CC2)nc(N2CCC(F)(F)CC2)n1 [Compound 60],IC50,KIF18A,< 0.15 µM
same,IC50,HCC1954,< 0.075 µM
same,AUC0-24 h,"[2]; male SD rats, oral 3 mg/kg",1330.47 ng·h/mL
same,Cmax,"[2]; male SD rats, oral 3 mg/kg",90.70 ng/mL
same,T1/2,"[2]; male SD rats, oral 3 mg/kg",7.47 h
same,Tmax,"[2]; male SD rats, oral 3 mg/kg",6.67 h
same,IC50,OVCAR-3,< 0.05 µM
same,IC50,HCC1806,< 0.2 µM
CC(C)(C)NS(=O)(=O)c1cccc(NC(=O)c2ccc(NC(C)(C)CO)nc2N2CCC(=C(F)F)CC2)c1 [Compound 62],IC50,OVCAR-3; [3],< 0.2 µM
same,IC50,HCC1806; [4],< 0.5 µM
CC(C)(C)NS(=O)(=O)c1cccc(NC(=O)c2ccc(S(=O)(=O)NC(C)(C)C)cc2N2CCC(=C(F)F)CC2)c1 [Compound 63],IC50,HCC1954; Homo sapiens,< 0.05 µM
same,IC50,OVCAR-3; [3],< 0.05 µM
same,IC50,HCC1806; [4],< 0.075 µM
Cc1cc(NC(=O)c2ccc(NS(=O)(=O)CCO)nc2N2CCC(=C(F)F)CC2)nc(N2CCC(F)(F)CC2)n1 [Compound 65],IC50,OVCAR-3; [3],< 0.5 µM
same,IC50,HCC1806; [4],< 1 µM
CC(C)(C)NS(=O)(=O)c1cccc(NC(=O)c2ccc(S(=O)(=O)C3(C)COC3)cc2N2CCC(=C(F)F)CC2)c1 [Compound 67],IC50,OVCAR-3; [3],< 0.5 µM
same,IC50,HCC1806; [4],< 1 µM
Cc1cc(NC(=O)c2ccc(NS(=O)(=O)[C@H](C)CO)cc2N2CCC(=C(F)F)CC2)nc(N2CCC(F)(F)CC2)n1 [Compound 68],IC50,HCC1954; Homo sapiens,< 0.05 µM
same,AUC(0-t),[2]; [5],3330 ng·h/mL
same,Cmax,[2]; [5],227 ng/mL
same,Tmax,[2]; [5],6.67 h
same,half-life,[2]; [5],7.18 h
same,IC50,OVCAR-3; [3],< 0.05 µM
same,IC50,HCC1806; [4],< 0.1 µM
Cc1cc(NC(=O)c2ccc(NS(=O)(=O)[C@@H](C)CO)cc2N2CCC(=C(F)F)CC2)nc(N2CCC(F)(F)CC2)n1 [Compound 69],IC50,HCC1954; Homo sapiens,< 0.2 µM
same,IC50,OVCAR-3; [3],< 0.1 µM
same,IC50,HCC1806; [4],< 0.2 µM
Cc1cc(NC(=O)c2ccc(NS(=O)(=O)C(F)CO)cc2N2CCC(=C(F)F)CC2)nc(N2CCC(F)(F)CC2)n1 (stereo not shown) [Compound 72],IC50,OVCAR-3; [3],< 0.2 µM
same,IC50,HCC1806; [4],< 0.5 µM
CC(C)(C)NS(=O)(=O)c1cccc(NC(=O)c2ccc(S(=O)(=O)C3COC3)cc2N2CCC(=C(F)F)CC2)c1 [Compound 73],IC50,OVCAR-3; [3],< 0.2 µM
same,IC50,HCC1806; [4],< 0.5 µM
Cc1nc(N2CCC(F)(F)CC2)nc(NC(=O)c2ccc(NS(=O)(=O)CCO)cc2N2CCC(=C(F)F)CC2)c1F [Compound 74],IC50,HCC1954; Homo sapiens,< 1 µM
same,IC50,OVCAR-3; [3],< 1 µM
CCc1cc(NC(=O)c2ccc(NS(=O)(=O)CCO)cc2N2CCC(=C(F)F)CC2)nc(N2CCC(F)(F)CC2)n1 [Compound 75],IC50,OVCAR-3; [3],< 0.2 µM
N#Cc1ccc(NC(=O)c2ccc(NS(=O)(=O)CCO)cc2N2CCC(=C(F)F)CC2)nc1N1CCC(F)(F)CC1 [Compound 77],IC50,OVCAR-3; [3],< 0.05 µM
Cc1cc(NC(=O)c2ccc(NS(=O)(=O)CCO)cc2N2CCC(=C(F)F)CC2)nc(N2CCC(F)(F)CC2)c1F [Compound 79],AUC(0-t),[2]; [5],2240 ng·h/mL
same,Cmax,[2]; [5],160 ng/mL
same,Tmax,[2]; [5],5.33 h
same,half-life,[2]; [5],7.61 h
same,IC50,OVCAR-3; [3],< 0.05 µM
Cc1cc(NC(=O)c2ccc(NS(=O)(=O)[C@H](C)CO)cc2N2CCC(=C(F)F)CC2)nc(N2CCC(F)(F)CC2)c1 [Compound 82],AUC(0-t),[2]; [5],4520 ng·h/mL
same,Cmax,[2]; [5],363 ng/mL
same,Tmax,[2]; [5],4.67 h
same,half-life,[2]; [5],5.01 h

# — patent US20250214965A1, “COMPOUND AS KIF18A INHIBITOR” (Hangzhou Innogate Pharma Co., Ltd., priority 2021, published 2025)
